Where “and” joins values, the source holds several entries; their conditions need not be identical. Equal entries are not always repeated. No end group written: not given here.
Experiments:
[1] = tested on: pig tracheal muscle strips; conditions: contracted to approximately 30% maximal with carbachol
Procedure: Pig tracheal muscle strips of approximately 2 mm×2 mm in size and with mucosa were prepared by dissecting away overlying cartilage. Strips were suspended in Krebs solution under 1 g passive tension, and contracted to approximately 30% maximal contraction with carbachol (40 μM).

[2] = tested on: guinea-pig taenia coli
Procedure: 2 cm strips of teania coil with intact Auerbach's plexus, but which had been stripped of the mucosa, were suspended in Kreb's solution under 1 g passive tension, and contracted with histamine (1 μM) to induce active tension.

[3] = tested on: human distal colon
Procedure: Human distal colon strips obtained at bowel resection were suspended at 1 g passive isometric force and contracted with substance P (30 μM) to maintain a steady level of active tension.

[4] = tested on: human bronchial epithelium; conditions: after amiloride
Procedure: Human airways were obtained from discarded sections of lungs of patients undergoing lobectomy operations at the Royal Melbourne Hospital, Melbourne, Australia usually for lung cancer. The dissection and set up were as described above for the mouse trachea.
(§1) After an equilibration time of 30 min, compounds for testing and drugs to elucidate the mechanism of any changes in Isc to the test compounds were added to either side of the tracheal epithelium (ie to either bath). Compounds used for increasing Isc were PGE2, adenosine 5′-triphosphate (ATP), uridine 5′-triphosphate (UTP) and the PAR1-, PAR2- and PAR4-activating peptides, SFLLRN (SEQ ID NO:1) and SLIGRL (SEQ ID NO:2) and GYPGQY (SEQ ID NO:6), respectively. These stimulants were added cumulatively with controls for any time-dependent tachyphylaxis.

[5] = tested on: monkey small bronchi
Excerpt: The experimental details are similar to those for the mouse isolated bronchi. Briefly, approximately 2 mm long rings of small bronchi were mounted on wire hooks. In each trace, half log concentrations are not depicted for clarity.

[6] = tested on: rat bronchioles
Excerpt: The right and left main bronchi and their first order branches of specific pathogenfree (SPF) Balb/c mice (15–20 g; either sex), Hartley tricolour guinea-pigs (300–400 g; male) and Sprague-Dawley rats (200–350 g; either sex), all killed by either cervical dislocation or overdosed (i.p.) with sodium pentobarbitone, were cleared of surrounding connective tissue, nerves and blood vessels under a dissecting microscope and placed in cold, carbogenated (95% v/v O2,5% v/v CO2) Krebs solution (Kemp and Cocks, 1997). Human airway preparations (0.5–1 mm in external diameter) were dissected from lungs of cancer patients undergoing thoracotomy at The Royal Melbourne Hospital, Melbourne, Australia. The epithelium was removed from some bronchi either by mechanical abrasion of the luminal surface (guinea-pig) or by brief, gentle intraliminal flushing of the airways with Krebs containing 0.1% v/v Triton-X100 (mouse and rat). In each case, removal of the epithelium was verified histologically in 8 μm formalin-fixed, paraffin sections stained with haemotoxylin and eosin. Ring segments (approximately 2 mm long) of bronchi and bronchioles were mounted in Krebs (37° C.) on stainless steel wires (40 μm) in dual channel (5 ml) Mulvany-Halpern myographs (JP Trading, Aarhus, Denmark) to record changes in isometric force (Kemp and Cocks, 1997). After equilibration at a passive force between 0.2 g and 0.3 g, tissues were contracted to their maximum levels of active force (Fm.),) with acetylcholine (30 μM), thoroughly washed with Krebs and allowed to return to baseline. Various drugs or their vehicles were then added and 30 min later all tissues were contracted to approximately 40% Fmax with titrated concentrations of carbachol (10–500 nM). The L-type voltage-operated Ca^2+ channel inhibitor, nifedipine (0.3 μM) was added to all mouse and rat tissues after obtaining Fmax to control characteristic phasic contractile activity with carbachol.
All cumulative responses (relaxations and contractions) were normalised as percentages of the initial level of active force to carbachol. Results are presented as mean±s.e mean and pEC50 (sensitivity) values were calculated by fitting concentration-response curves to a four parameter logistic function (Kemp and Cocks, 1997) using Graphpad Prism (version 2.0). Statistical comparison of mean pEC50 and maximum response (Rmax) values were compared by two-tailed unpaired Student's t-tests or one way analysis of variance (ANOVA) with Tukey-Kramer's t-tests for multiple comparisons. P<0.05 was accepted as significant. Unless specified, all averaged data are from n>5 experiments.

[7] = tested on: anaesthetised rat
Procedure: Male Sprague-Dawley rats (8 weeks) were anaesthetised (xylazine 10 mg/kg, ketamine 100 mg/kg and 50 mg/kg each 30 min thereafter, i.p.) and cannulae were placed in the trachea, carotid artery and jugular vein. Spontaneous breathing was stopped by an intravenous injection of pancuronium bromide (0.4 mg/kg and 0.2 mg/kg each 30 min thereafter) and rats were ventilated (tidal volume 8 ml/kg at 90 breaths/min, SAR-830 ventilator, CWE Inc., Ardmore, USA). Breath-to-breath measurement of airway resistance (RD and dynamic compliance (Cdyn) were calculated from flow and transpulmonary pressure recordings (PMS800, Mumed, London, UK). Flow was measured over the tracheal cannula (Fleisch pneumotachograph, Lausanne, Switzerland) and transpulmonary pressure was measured with a differential pressure transducer, one end being connected to the outlet of the tracheal cannula, the other to an air-filled cannula inserted in the oesophagus. A rectal probe was used to monitor body temperature. Serotonin (5-HT; 0.3 mg/kg i.v.) was administered as a bolus dose at 5 min intervals until reproducible changes in RL and Cdyn were obtained. Prior to each 5-HT challenge, lungs were hyperinflated once (by delivering twice the tidal volume) to prevent and reverse atelecasis. […]

[8] = tested on: mouse trachea
Excerpt: Mice were killed by a lethal overdose of sodium pentobarbitone and the tracheae rapidly excised. The trachea was opened longitudinally through the ventral cartilage rings to make a fiat sheet. Each sheet of trachea was mounted between two perspex chambers so that the mucosal (luminal) and submucosal and bathed with warmed, oxygenated Krebs' solution, independently on each side. Electrodes in the chambers allowed recordings of transepithelial potential difference using an amplifier. The tissue was voltage clamped at 0 mV by passing a current from the amplifier via another set of electrodes in the chambers. The amount of current required to maintain voltage at 0 mV is defined as the short circuit current (Isc) and is conventionally used as a measure of all ionic fluxes across the preparation.
as §1

[9] = tested on: mice challenged with bacterial lipopolysaccharide; conditions: 2 mg/kg or 20 mg/kg intranasal before LPS
Procedure: Mice were challenged with bacterial lipopolysaccharide (LPS; 10 μg/mouse) via intranasal administration under light halothane aneasthesia.
Three hours after receiving LPS, the mice were killed via an intraperitoneal injection of sodium pentabarbitone and the lungs were canulated and lavaged with 4×0.5 ml washes of phosphate buffered saline. The total number of cells retrieved by this procedure was determined with a haemocytometer. Differential counts of individual cell types were performed on cytospin preparations of the lavage fluid, stained with the conventional May-Grunwald/Giemsa blood stain. The total number of neutrophils in each sample was then calculated from the proportion of neutrophils in the cytospin preparations, as a proportion of the total number of cells retrieved.

Substance | relaxation of pig tracheal strip [1] | relaxation in presence of apamin ([2]; apamin (100 μM)) | relaxation of taenia coli ([2]; contracted with histamine (1 μM)) | response of human distal colon [3] | change in Isc [4] | effect on monkey small bronchi [5] | Rmax [6] | pEC50 [6] | inhibition of 5-HT-induced changes in airway resistance (RL) and dynamic compliance (Cdyn) ([7]; 30 sec aerosol of 0.1 mg/ml solution) | duration of inhibition of bronchoconstriction to 5-HT ([7]; aerosol of 1 mg/ml) | inhibition of bronchoconstriction to 5-HT ([7]; aerosol of 1 mg/ml) | increase in Isc in presence of indomethacin ([8]; cyclooxygenase inhibitor indomethacin) | change in Isc ([8]; luminally applied) | effect on LPS-induced neutrophil infiltration into the lungs [9]
SFLLRN [SFLLRN—NH2] | slow onset, near maximal relaxation of the tissue comparable in extent to that induced by isoprenaline | inhibited | relaxed in response to TRAP in a concentration-dependent manner | relaxed in an apparently apaminin sensitive manner | increases in Ise | smooth muscle relaxing effects | – | – | – | – | – | – | – | –
SLIGRL-NH2 [SLIGRL—NH2] | – | – | – | – | – | – | 67±5% | 5.1±0.1 and 5.1±0.01 | 50–70% | at least 45 min | complete inhibition | unaffected | rapid initial rise in Isc usually followed by some degree of recovery until a steady plateau was reached | dose-dependent inhibition of the increase of neutrophil infiltration into the lungs
